Reference: ChEMBL document CHEMBL3396996, “Catechol-based substrates of chalcone synthase as a scaffold for novel inhibitors of PqsD” (Eur J Med Chem, 2015)
The source made the active and inactive calls. The calls are words filed in the database; no cut-off is given here.

Key:
[1] = target: T1, 2-heptyl-4(1H)-quinolone synthase PqsD (Pseudomonas aeruginosa) (UniProt A0A0C7ACN7); assay: Inhibition of Pseudomonas aeruginosa recombinant PqsD expressed in Escherichia coli BL21 (lambdaDE3) using ACoA/beta-ketodecanoic acid as substrate at 50 uM after 10 mins
T1 sequence (whole entry): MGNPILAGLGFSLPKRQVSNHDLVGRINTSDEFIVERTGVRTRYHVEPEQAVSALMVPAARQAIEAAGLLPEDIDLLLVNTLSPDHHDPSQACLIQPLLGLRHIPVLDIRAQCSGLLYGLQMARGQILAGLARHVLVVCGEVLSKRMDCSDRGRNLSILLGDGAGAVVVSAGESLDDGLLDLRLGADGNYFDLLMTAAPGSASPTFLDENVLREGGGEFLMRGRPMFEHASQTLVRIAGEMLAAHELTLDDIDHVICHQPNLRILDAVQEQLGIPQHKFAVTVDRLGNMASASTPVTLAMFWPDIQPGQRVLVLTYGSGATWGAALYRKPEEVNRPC

[2] = target: T2, 2-heptyl-4(1H)-quinolone synthase PqsD (Pseudomonas aeruginosa, UniProt A0A0C7ACN7); assay: Inhibition of Pseudomonas aeruginosa recombinant PqsD expressed in Escherichia coli BL21 (lambdaDE3) using ACoA/beta-ketodecanoic acid as substrate after 10 mins
T2 sequence (A0A0C7ACN7 whole entry): T1 sequence (whole entry)

[3] = target: T1, 2-heptyl-4(1H)-quinolone synthase PqsD (Pseudomonas aeruginosa); assay: Binding affinity to Pseudomonas aeruginosa recombinant his6-tagged PqsD expressed in Escherichia coli BL21 (lambdaDE3) at 250 to 500 uM by SPR analysis
[4] = tested on: Pseudomonas aeruginosa PA14; assay: Inhibition of Pseudomonas aeruginosa PA14 PqsH transposon mutant assessed as extracellular level of HHQ at 250 uM after 16 hrs
[5] = target: T1, 2-heptyl-4(1H)-quinolone synthase PqsD (Pseudomonas aeruginosa); assay: Binding affinity to Pseudomonas aeruginosa recombinant his6-tagged PqsD expressed in Escherichia coli BL21 (lambdaDE3) using AcoA as substrate at 250 to 500 uM incubated for 40 mins prior to compound addition followed by wash out for 30 mins by SPR analysis
[6] = tested on: Pseudomonas aeruginosa PA14; assay: Inhibition of Pseudomonas aeruginosa PA14 PqsH transposon mutant assessed as extracellular level of HHQ at 500 uM after 16 hrs
[7] = tested on: Pseudomonas aeruginosa PA14; assay: Inhibition of Pseudomonas aeruginosa PA14 PqsH transposon mutant assessed as extracellular level of HHQ after 16 hrs

| Structure (SMILES) | inhibition [1] | IC50 [2] | inhibition [4] | other results |
| --- | --- | --- | --- | --- |
| COC(=O)CCc1ccc(C)cc1 | < 10% | – | – | – |
| O=C(CCc1ccc(O)c(O)c1)OCc1ccccc1 | – | 5.9 µM | < 10% | Activity [3]: Active |
| COC(=O)CCc1ccc(N)cc1 | < 10% | – | – | – |
| O=C(O)/C=C/c1ccsc1 | 12% | – | < 10% | – |
| COC(=O)/C=C/c1ccc(O)cc1 | 22% | – | < 10% | Activity [5]: inactive |
| O=C(O)/C=C/c1ccc(O)c(O)c1 | 26% | – | – | inhibition [6]: 10% |
| O=C(O)/C=C/c1ccc(O)cc1 | 30% | – | < 10% | – |
| CC(C)OC(=O)CCc1ccc(O)c(O)c1 | – | 8.6 µM | – | Activity [3]: Active; Activity [7]: 16 µM |
| COC(=O)CCc1ccc(O)c(O)c1 | – | 23 µM | – | Activity [7]: 17 µM |
| O=C(O)/C=C/c1cccc(O)c1 | < 10% | – | – | – |
| COC(=O)CCc1ccc(O)cc1 | < 10% | – | – | – |
| COc1cc(/C=C/C(=O)O)ccc1O | < 10% | – | – | – |
| COC(=O)CCc1ccc([N+](=O)[O-])cc1 | < 10% | – | – | – |
| COC(=O)CCCc1ccc(O)c(O)c1 | – | 7.9 µM | – | Activity [3]: Active; Activity [7]: 18 µM |
| O=C(O)/C=C/c1ccc(F)c(F)c1 | 18% | – | – | – |
| CNC(=O)CCc1ccc(O)c(O)c1 | – | 20 µM | < 10% | – |
| COC(=O)CCc1ccc2c(c1)OCO2 | 37% | – | < 10% | – |
| CCOC(=O)CCc1ccc(O)c(O)c1 | – | 14 µM | – | Activity [7]: 17 µM |
| COC(=O)/C=C/c1ccc(O)c(O)c1 [METHYLCAFFEATE] | – | 51 µM | – | Activity [5]: inactive; Activity [7]: 31 µM |
| O=C(O)/C=C/c1ccccc1 | 33% | – | < 10% | – |
| COC(=O)/C=C/c1ccccc1 | < 10% | – | – | Activity [5]: inactive |
| O=C(O)CCc1ccc(O)c(O)c1 [DIHYDROCAFFEIC ACID] | – | 27 µM | < 10% | – |
| COC(=O)/C=C/c1ccc(F)c(F)c1 | < 10% | – | < 10% | – |
| COC(=O)Cc1ccc(O)c(O)c1 | – | 23 µM | – | Activity [7]: 24 µM |
| O=C(O)/C=C/c1ccoc1 | 12% | – | – | – |
